In ChEMBL document CHEMBL3400114, “The design, synthesis and biological evaluation of conformationally restricted 4-substituted-2,6-dimethylfuro[2,3-d]pyrimidines as multi-targeted receptor tyrosine kinase and microtubule inhibitors as potential antitumor agents” (Bioorg Med Chem, 2015):

Columns and labels:
[1] = tested on: A-431; test: Antiproliferative activity against human A431 cells after 48 hrs by sulforhodamine B assay; format: functional, cell-based; conditions: A-431, 48 h
[2] = Antiangiogenic activity in VEGF-165 and bFGF-stimulated chicken embryo chorioallantoic membrane assessed as inhibition of blood vessel formation after 40 hrs by microscopy; format: functional, tissue-based, Gallus gallus
[3] = Induction of microtubule depolymerization in rat A10 cells after 18 hrs by indirect immunofluorescence assay; format: cell-based
[4] = tested on: MDA-MB-435; test: Antiproliferative activity against human MDA-MB-435 cells after 48 hrs by sulforhodamine B assay; format: functional, cell-based; conditions: MDA-MB-435, 48 h
[5] = Ratio of EC50 for microtubule depolymerization in rat A10 cells to IC50 for human MDA-MB-435 cells
[6] = tested on: HeLa; test: Antiproliferative activity against human HeLa cells after 48 hrs by sulforhodamine B assay; format: functional, cell-based
[7] = tested on: HeLa; test: Antiproliferative activity against human HeLa cells overexpressing wild type beta3 tubulin after 48 hrs by sulforhodamine B assay; format: functional, cell-based
[8] = tested on: HeLa; test: Resistance ratio of IC50 for human HeLa cells overexpressing wild type beta3 tubulin to IC50 for human HeLa cells; format: functional
[9] = Antiproliferative activity against human SKOV3 cells overexpressing wild type beta3 tubulin after 48 hrs by sulforhodamine B assay; format: functional, cell-based; conditions: SK-OV-3, 48 h
[10] = Antiproliferative activity against human SKOV3-MDR1-M6/6 cells overexpressing wild type beta3 tubulin after 48 hrs by sulforhodamine B assay; format: functional, cell-based; conditions: SKOV3-MDR1-M6/6, 48 h
[11] = tested on: SK-OV-3; test: Resistance ratio of IC50 for human SKOV3-MDR1-M6/6 cells to IC50 for human SKOV3 cells; format: functional
[12] = Growth inhibition of human EKVX cells after 48 hrs by sulforhodamine B assay; format: functional
[13] = tested on: HOP-62; test: Growth inhibition of human HOP62 cells after 48 hrs by sulforhodamine B assay; format: functional; conditions: HOP-62, 48 h
[14] = Growth inhibition of human HOP92 cells after 48 hrs by sulforhodamine B assay; format: functional; conditions: HOP-92, 48 h
[15] = tested on: NCI-H226; test: Growth inhibition of human NCI-H226 cells after 48 hrs by sulforhodamine B assay; format: functional; conditions: NCI-H226, 48 h
[16] = tested on: NCI-H23; test: Growth inhibition of human NCI-H23 cells after 48 hrs by sulforhodamine B assay; format: functional; conditions: NCI-H23, 48 h
[17] = tested on: NCI-H460; test: Growth inhibition of human NCI-H460 cells after 48 hrs by sulforhodamine B assay; format: functional; conditions: NCI-H460, 48 h
[18] = tested on: NCI-H522; test: Growth inhibition of human NCI-H522 cells after 48 hrs by sulforhodamine B assay; format: functional; conditions: NCI-H522, 48 h
[19] = tested on: SF-268; test: Growth inhibition of human SF268 cells after 48 hrs by sulforhodamine B assay; format: functional; conditions: SF-268, 48 h
[20] = Growth inhibition of human SF295 cells after 48 hrs by sulforhodamine B assay; format: functional; conditions: SF-295, 48 h
[21] = Growth inhibition of human SF539 cells after 48 hrs by sulforhodamine B assay; format: functional; conditions: SF-539, 48 h
[22] = tested on: SNB-19; test: Growth inhibition of human SNB19 cells after 48 hrs by sulforhodamine B assay; format: functional; conditions: SNB-19, 48 h
[23] = tested on: SNB-75; test: Growth inhibition of human SNB75 cells after 48 hrs by sulforhodamine B assay; format: functional; conditions: SNB-75, 48 h
[24] = tested on: U-251; test: Growth inhibition of human U251 cells after 48 hrs by sulforhodamine B assay; format: functional; conditions: U-251, 48 h
[25] = tested on: IGROV-1; test: Growth inhibition of human IGROV1 cells after 48 hrs by sulforhodamine B assay; format: functional; conditions: IGROV-1, 48 h
[26] = Growth inhibition of human OVCAR3 cells after 48 hrs by sulforhodamine B assay; format: functional; conditions: OVCAR-3, 48 h
[27] = Growth inhibition of human OVCAR4 cells after 48 hrs by sulforhodamine B assay; format: functional; conditions: OVCAR-4, 48 h
[28] = Growth inhibition of human OVCAR5 cells after 48 hrs by sulforhodamine B assay; format: functional; conditions: OVCAR-5, 48 h
[29] = Growth inhibition of human OVCAR8 cells after 48 hrs by sulforhodamine B assay; format: functional; conditions: OVCAR-8, 48 h
[30] = tested on: NCI/ADR-RES; test: Growth inhibition of human NCI/ADR-RES cells after 48 hrs by sulforhodamine B assay; format: functional
[31] = tested on: SK-OV-3; test: Growth inhibition of human SKOV3 cells after 48 hrs by sulforhodamine B assay; format: functional; conditions: SK-OV-3, 48 h
[32] = Growth inhibition of human LOXIMVI cells after 48 hrs by sulforhodamine B assay; format: functional; conditions: LOX IMVI
[33] = tested on: M14; test: Growth inhibition of human M14 cells after 48 hrs by sulforhodamine B assay; format: functional; conditions: M14, 48 h
[34] = tested on: MDA-MB-435; test: Growth inhibition of human MDA-MB-435 cells after 48 hrs by sulforhodamine B assay; format: functional; conditions: MDA-MB-435, 48 h
[35] = tested on: SK-MEL-2; test: Growth inhibition of human SK-MEL-2 cells after 48 hrs by sulforhodamine B assay; format: functional; conditions: SK-MEL-2, 48 h
[36] = tested on: SK-MEL-5; test: Growth inhibition of human SK-MEL-5 cells after 48 hrs by sulforhodamine B assay; format: functional; conditions: SK-MEL-5, 48 h
[37] = Growth inhibition of human UACC62 cells after 48 hrs by sulforhodamine B assay; format: functional; conditions: UACC-62, 48 h
[38] = tested on: 786-0; test: Growth inhibition of human 786-0 cells after 48 hrs by sulforhodamine B assay; format: functional; conditions: 786-0, 48 h
[39] = tested on: ACHN; test: Growth inhibition of human ACHN cells after 48 hrs by sulforhodamine B assay; format: functional
[40] = tested on: CAKI-1; test: Growth inhibition of human Caki1 cells after 48 hrs by sulforhodamine B assay; format: functional; conditions: CAKI-1, 48 h
[41] = Growth inhibition of human RXF393 cells after 48 hrs by sulforhodamine B assay; format: functional; conditions: RXF 393, 48 h
[42] = tested on: SN12C; test: Growth inhibition of human SN12C cells after 48 hrs by sulforhodamine B assay; format: functional
[43] = tested on: TK-10; test: Growth inhibition of human TK10 cells after 48 hrs by sulforhodamine B assay; format: functional; conditions: TK-10, 48 h
[44] = Growth inhibition of human COLO205 cells after 48 hrs by sulforhodamine B assay; format: functional; conditions: COLO 205, 48 h
[45] = Growth inhibition of human HCT116 cells after 48 hrs by sulforhodamine B assay; format: functional; conditions: HCT-116, 48 h
[46] = Growth inhibition of human HCT15 cells after 48 hrs by sulforhodamine B assay; format: functional; conditions: HCT-15, 48 h
[47] = tested on: HT-29; test: Growth inhibition of human HT-29 cells after 48 hrs by sulforhodamine B assay; format: functional; conditions: HT-29, 48 h
[48] = tested on: KM12; test: Growth inhibition of human KM12 cells after 48 hrs by sulforhodamine B assay; format: functional; conditions: KM12, 48 h
[49] = tested on: SW-620; test: Growth inhibition of human SW620 cells after 48 hrs by sulforhodamine B assay; format: functional; conditions: SW-620, 48 h
[50] = Growth inhibition of human PC3 cells after 48 hrs by sulforhodamine B assay; format: functional; conditions: PC-3, 48 h
[51] = tested on: DU-145; test: Growth inhibition of human DU145 cells after 48 hrs by sulforhodamine B assay; format: functional; conditions: DU-145, 48 h
[52] = tested on: MCF7; test: Growth inhibition of human MCF7 cells after 48 hrs by sulforhodamine B assay; format: functional; conditions: MCF7, 48 h
[53] = tested on: MDA-MB-231; test: Growth inhibition of human MDA-MB-231 cells after 48 hrs by sulforhodamine B assay; format: functional; conditions: MDA-MB-231, 48 h
[54] = Growth inhibition of human Hs 578T cells after 48 hrs by sulforhodamine B assay; format: functional
[55] = Growth inhibition of human BT549 cells after 48 hrs by sulforhodamine B assay; format: functional; conditions: BT-549, 48 h
[56] = tested on: MDA-MB-468; test: Growth inhibition of human MDA-MB-468 cells after 48 hrs by sulforhodamine B assay; format: functional; conditions: MDA-MB-468, 48 h
[57] = tested on: CCRF-CEM; test: Growth inhibition of human CCRF-CEM cells after 48 hrs by sulforhodamine B assay; format: functional
[58] = tested on: HL-60(TB); test: Growth inhibition of human HL-60(TB) cells after 48 hrs by sulforhodamine B assay; format: functional; conditions: HL-60, 48 h
[59] = tested on: K562; test: Growth inhibition of human K562 cells after 48 hrs by sulforhodamine B assay; format: functional; conditions: K562, 48 h
[60] = Growth inhibition of human MOLT4 cells after 48 hrs by sulforhodamine B assay; format: functional; conditions: MOLT-4, 48 h
[61] = Growth inhibition of human […] cells after 48 hrs by sulforhodamine B assay; format: functional
[62] = tested on: SR; test: Growth inhibition of human SR cells after 48 hrs by sulforhodamine B assay; format: functional

**Q.** What does the source list for `Cc1nc(N(C)c2ccc3c(c2)CCO3)c2cc(C)oc2n1`?
**A.** IC50 [1]: 38.3 nM; IC50 [2]: 14 µM; EC50 [3]: 606 nM; IC50 [4]: 96.2 nM; Ratio [5]: 6; IC50 [6]: 105 nM; IC50 [7]: 94 nM; Ratio IC50 [8]: 0.9; IC50 [9]: 120 nM; IC50 [10]: 155 nM; Ratio IC50 [11]: 1.3; GI50 [12]: 70 nM; GI50 [13]: 39.6 nM; GI50 [14]: 45.8 nM; GI50 [15]: 162 nM; GI50 [16]: 43.9 nM; GI50 [17]: 42 nM; GI50 [18]: 12.9 nM; GI50 [19]: 13.9 nM; GI50 [20]: 30.5 nM; GI50 [21]: 31.6 nM; GI50 [22]: 56.5 nM; GI50 [23]: 30.4 nM; GI50 [24]: 39.7 nM; GI50 [25]: 62.9 nM; GI50 [26]: 24.5 nM; GI50 [27]: 83.4 nM; GI50 [28]: 262 nM; GI50 [29]: 63 nM; GI50 [30]: 26.5 nM; GI50 [31]: 37.6 nM; GI50 [32]: 45.6 nM; GI50 [33]: 34.8 nM; GI50 [34]: 14 nM; GI50 [35]: 26.4 nM; GI50 [36]: 31.4 nM; GI50 [37]: 61.3 nM; GI50 [38]: 80.4 nM; GI50 [39]: 64.2 nM; GI50 [40]: 40.1 nM; GI50 [41]: 21.2 nM; GI50 [42]: 97.2 nM; GI50 [43]: 50.2 nM; GI50 [44]: 40.3 nM; GI50 [45]: 45.1 nM; GI50 [46]: 38.9 nM; GI50 [47]: 32.4 nM; GI50 [48]: 40.1 nM; GI50 [49]: 41.6 nM; GI50 [50]: 52.2 nM; GI50 [51]: 44.1 nM; GI50 [52]: 40.2 nM; GI50 [53]: 148 nM; GI50 [54]: 31 nM; GI50 [55]: 77.2 nM; GI50 [56]: 22.1 nM; GI50 [57]: 58.1 nM; GI50 [58]: 27.6 nM; GI50 [59]: 31.7 nM; GI50 [60]: 76.7 nM; GI50 [61]: 54.2 nM; GI50 [62]: 36.6 nM
